The values that follow come from patent US6897348B2, “Bandage, methods of producing and using same” (Kimberly Clark Worldwide, Inc, priority 2001, dated 2005).

Assay [1] relates to human blood. Briefly: Lee and White Coagulation Assay in Human Blood. The following applies: samples in dried form (5 mg/ml), triplicate. On the procedure:
For the purposes of this application, and as a preliminary matter, a series of hemostatic agents were evaluated in order to determine a relative comparison of the effectiveness of such compounds on human blood. Each of the compounds were evaluated in the comparison against the standard control (human blood) and the negative control heparin, which is an anti-coagulant. […] Lee and White Coagulation Assay in Human Blood [table]

Assay [2] relates to full thickness (excisional) wounds on dorsal skin. Briefly: Accelerated wound healing study, full thickness acute wound model (re-epithelialization, epithelial thickness). The class given is in vivo. Conditions: rat full thickness wound. On the procedure:
Following the assessment of hemostatic agents, a study was conducted using the accelerated wound healing study protocol which follows. In the examples of the study, a series of comparative control bandage substrates were evaluated as to the speed at which wounds covered/dressed with such bandages healed. In particular, the rates of re-epithelialization were measured for wounds dressed by such control dressing materials. Additionally, the rates at which wounds heal that have been treated with a series of test compounds in accordance with the present invention, were also measured and compared with the controls.
For the purposes of the examples, the test compounds consisted of chitosan, Niacinamide ascorbate (hereinafter NA) prepared by the method which follows; and chitosan niacinamide ascorbate salt (hereinafter CNA, prepared by the method which follows), 2-ply surgical gauze, and Comfeel® Plus Clear Dressing (Colorplast).
Wounds were treated with test and control articles on the day of wounding (day 0) on 2, 4, 6, 8, 10, 12, and 14 days after the injury. CNA (freeze dried) was cut to the approximate size of the wound and applied over the wound. Chitosan (powder) and NA (powder) were applied over the wound to the depth that covered the underlying tissue. The gauze was cut to extend approximately 0.5 cm beyond the margins of the wound. The Comfeel® Plus dressing was cut to the approximate size of the wound and applied over the wound and also used to cover all test and control articles over the entire dorsal surface of the animal. […]
For the study, twenty four albino rats (12M/12F), each weighing between 250-300 g, were anesthetized (90 mg/Kg Ketamine HCL and 10 mg/Kg Xylazine) and the entire dorsal region of each rat was shaved. […] The epithelial thickness of the three sections of the wound (margin, center and midpoint between these two) was measured by morphometric analysis of the microscopic image using Image-Pro Plus software, Version 3.0 (Media Cybernetics). The average thickness of these sites within the wound was determined for wound healing of the entire site.

As for Heparin, the “BLOOD CLOTTING TIME (MIN)” value in assay [1] is “NC (NC = No Clot for 60 min)”.

Take `NC(=O)c1cccnc1.O=C1O[C@H]([C@@H](O)CO)C(O)=C1O` [NA, Niacinamide ascorbate]: the “improvement in re-epithelialization over the gauze control” value in assay [2] (day 5) was over 50%. Further, in assay [2] (over 15 days), the “re-epithelialization compared with the Comfeel control” value is given as “larger growth rates (re-epithelialization rates)” and the “re-epithelialization compared with the gauze control” value is reported as “larger numbers for re-epithelialization than the control”.
